Assays:
DLD-1 BRCA2(−/−) cells = assay: Cell growth inhibition assay (CellTiter-Glo cell viability, 7 days); format: cell-based; settings: Homo sapiens, 168 h
Description: (§1) The objective of this study is to evaluate the effect of invention compounds on cell proliferation through the cell viability assay in DLD-1 BRCA2(−/−) and parental isogenic pair and MDA-MB-436 (mutated BRCA1) cell lines. The CellTiter-Glo (CTG) based cell viability assay is designed to determine the number of viable cells in the culture because of compound effect, by quantifying ATP, which indicates the presence of metabolically active cells.
(§2) DLD-1 BRCA2(−/−) and parental isogenic pair were cultured in RPMI 1640 supplemented with 10% fetal bovine serum (FBS), and MDA-MB-436 cells were cultured in DMEM supplemented with 10% FBS. Both are culture at 37° C. with 5% CO2. Invention compounds were distributed to the 384 well plate (Corning, 3764) using Echo acoustic liquid handler to form a 1:3 serially diluted final concentration with top dose of 10 or 30 μM. The cells were seeded into the plate in the density of 50 cells/well (DLD-1 parental), 200 cells/well (DLD-1 BRCA2−/−), or 500 cells/well (MDA-MB-436). After a short spun, the cells were cultured in a well moisturized incubator at 37° C. with 5% CO2 for 7 days without disturbance. The cell viability was measured by CellTiter Glo 2.0 assay kit (Promega, G9243), and growth inhibition rate was calculated and plotted against final compound concentration, and the data were fitted in Xfit to generate IC50.

[1] = tested on: MDA-MB-436 (mutated BRCA1) cells; assay: as above; format: cell-based; settings: Homo sapiens, 168 h, MDA-MB-436, 7 days
Description: as §1, §2

Row | EC50 (DLD-1 BRCA2(−/−) cells) [nM] | EC50 [1] [nM] | SMILES
1 | > 1000 | > 1000 | CCc1cc2ncc(CN3CC[C@H](Oc4ccc(C(=O)NC)nc4)C3)cc2[nH]c1=O [Example 1, 5-{[(3S)-1-[(7-ethyl-6-oxo-5H-1,5-naphthyridin-3-yl)methyl]pyrrolidin-3-yl]oxy}-N-methylpyridine-2-carboxamide]
2 | > 1000 | > 1000 | CCc1cc2ncc(CN3C[C@@H](F)[C@H](Oc4ccc(C(=O)NC)nc4)C3)cc2[nH]c1=O [Example 5, 5-{[(3R,4R)-1-[(7-ethyl-6-oxo-5H-1,5-naphthyridin-3-yl)methyl]-4-fluoropyrrolidin-3-yl]oxy}-N-methylpyridine-2-carboxamide]
3 | 73 | 42 | CCc1cc2ncc(CN3C[C@H](Oc4ccc(C(=O)NC)nc4)[C@@H](F)C3)cc2[nH]c1=O [Example 6, 5-(((3S,4S)-1-((7-ethyl-6-oxo-5,6-dihydro-1,5-naphthyridin-3-yl)methyl)-4-fluoropyrrolidin-3-yl)oxy)-N-methylpicolinamide]
4 | > 1000 |  | CCc1cc2ncc(CN3C[C@H](F)[C@H](Oc4ccc(C(=O)NC)nc4)C3)cc2[nH]c1=O [Example 8, 5-{[(3R,4S)-1-[(7-ethyl-6-oxo-5H-1,5-naphthyridin-3-yl)methyl]-4-fluoropyrrolidin-3-yl]oxy}-N-methylpyridine-2-carboxamide]
5 | 72 | 25 | CCc1cc2ncc(CN3C[C@@H](F)[C@@H](Oc4ccc(C(=O)NC)nc4)C3)cc2[nH]c1=O [Example 9, 5-(((3S,4R)-1-((7-ethyl-6-oxo-5,6-dihydro-1,5-naphthyridin-3-yl)methyl)-4-fluoropyrrolidin-3-yl)oxy)-N-methylpicolinamide]
6 | 28 | 19 | CCc1cc2ncc(CN3CC[C@@H](N(C)c4ccc(C(=O)NC)nc4)C3)cc2[nH]c1=O [Example 11, 5-{[(3R)-1-[(7-ethyl-6-oxo-5H-1,5-naphthyridin-3-yl)methyl]pyrrolidin-3-yl](methyl)amino}-N-methylpyridine-2-carboxamide]
7 | 38 | 12 | CCc1cc2ncc(CN3CC[C@@H](Cc4ccc(C(=O)NC)nc4)C3)cc2[nH]c1=O [Example 13, 5-{[(3R)-1-[(7-ethyl-6-oxo-5H-1,5-naphthyridin-3-yl)methyl]pyrrolidin-3-yl]methyl}-N-methylpyridine-2-carboxamide]
8 | > 1000 |  | CCc1cc2ncc(CN3CC(C)(Oc4ccc(C(=O)NC)nc4)C3)cc2[nH]c1=O [Example 15, 5-({1-[(7-ethyl-6-oxo-5H-1,5-naphthyridin-3-yl)methyl]-3-methylazetidin-3-yl}oxy)-N-methylpyridine-2-carboxamide]
9 | 49 | 18 | CNC(=O)c1ccc(OC2CN(Cc3cnc4cc(C5CC5)c(=O)[nH]c4c3)C2)cn1 [Example 16, 5-({1-[(7-cyclopropyl-6-oxo-5H-1,5-naphthyridin-3-yl)methyl]azetidin-3-yl}oxy)-N-methylpyridine-2-carboxamide]
10 | > 1000 | > 1000 | CCc1cc2ncc(CN3C[C@@H](Oc4ccc(C(=O)NC)nc4)[C@@H]3C)cc2[nH]c1=O [Example 18, 5-{[(2S,3R)-1-[(7-ethyl-6-oxo-5H-1,5-naphthyridin-3-yl)methyl]-2-methylazetidin-3-yl]oxy}-N-methylpyridine-2-carboxamide]
11 | > 1000 | > 1000 | CCc1cc2ncc(CN3C[C@@H](Oc4ccc(C(=O)NC)nc4)[C@H]3C)cc2[nH]c1=O [Example 19, 5-{[(2R,3R)-1-[(7-ethyl-6-oxo-5H-1,5-naphthyridin-3-yl)methyl]-2-methylazetidin-3-yl]oxy}-N-methylpyridine-2-carboxamide]
12 | 93 | 91 | CCc1cc2ncc(CN3C[C@H](Oc4ccc(F)cc4C#N)[C@H]3C)cc2[nH]c1=O [Example 65]
13 | 0.97 | 0.65 | CCNC(=O)c1ccc(O[C@H]2CN(Cc3cnc4cc(CC)c(=O)[nH]c4c3)[C@@H]2C)cn1 [Example 67]
14 | 15 | 18 | CCc1cc2ncc(CN3C[C@H](Oc4ccc(C#N)c(F)c4)[C@H]3C)cc2[nH]c1=O [Example 68]
15 | 11 | 5.6 | CCc1cc2ncc(CN3C[C@H](Oc4ccc(C#N)cc4F)[C@H]3C)cc2[nH]c1=O [Example 69]
16 | 0.89 | 0.49 | [2H]C([2H])(c1cnc2cc(CC)c(=O)[nH]c2c1)N1C[C@H](Oc2ccc(C(=O)NC3CC3)nc2)[C@H]1C [Example 71]
17 | 33 | 50 | CCc1cc2ncc(CN3C[C@H](Oc4ccc(C#N)cc4C#N)[C@H]3C)cc2[nH]c1=O [Example 72]

Row | EC50 (DLD-1 BRCA2(−/−) cells) [nM] | EC50 [1] [nM] | SMILES
18 | 32 | 35 | C[C@@H]1[C@@H](Oc2ccc(C#N)nc2)CN1Cc1cnc2cc(Cl)c(=O)[nH]c2c1 [Example 78]
19 | 6.3 | 1.9 | CCc1cc2ncc(CN3C[C@H](Oc4ccc(C(=O)NC5CC5)nc4C#N)[C@H]3C)cc2[nH]c1=O [Example 79]
20 | 3 | 1.7 | Cc1cc2ncc(CN3C[C@H](Oc4ccc(C(=O)N[C@H]5C[C@@H](F)C5)nc4)[C@H]3C)cc2[nH]c1=O [Example 81]
21 | 22 | 11 | CCc1cc2ncc(CN3C[C@H](n4ccc5nc(C#N)ccc54)[C@H]3C)cc2[nH]c1=O [Example 83]
22 | 1.8 | 1.3 | Cc1cc2ncc(CN3C[C@H](Oc4ccc(C(=O)NC5CCC5)nc4)[C@H]3C)cc2[nH]c1=O [Example 85]
23 | 3.4 | 1.8 | CCc1cc2ncc(CN3C[C@H](n4ccc5nc(C(=O)NC6CC6)ccc54)[C@H]3C)cc2[nH]c1=O [Example 86]
24 | 20 | 12 | CNC(=O)c1ccc2c(ccn2[C@H]2CN(Cc3ccc4[nH]c(=O)c(C5CC5)cc4n3)[C@@H]2C)n1 [Example 87]
25 | 6.3 | 3.4 | CCNC(=O)c1ccc2c(ccn2[C@H]2CN(Cc3cnc4cc(CC)c(=O)[nH]c4c3)[C@@H]2C)n1 [Example 88]
26 | 1.6 | 1.1 | C[C@@H]1[C@@H](Oc2ccc(C(=O)NC3CCC3)nc2)CN1Cc1cnc2cc(C(F)F)c(=O)[nH]c2c1 [Example 92]
27 | 7.2 | 5 | CCc1nc2ccc(CN3C[C@H](Oc4ccc(C(=O)NC)nc4)[C@H]3C)c(F)c2[nH]c1=O [Example 93]
28 | 43 | 11 | Cc1nc2ccc(CN3C[C@H](Oc4ccc(C(=O)NC5CC5)nc4)[C@H]3C)c(F)c2[nH]c1=O [Example 94]
29 | 3.5 | 3.2 | CCc1nc2ccc(CN3C[C@H](Oc4ccc(C(=O)NC5CC5)nc4)[C@H]3C)c(F)c2[nH]c1=O [Example 95]
30 | > 1000 | > 1000 | CNC(=O)c1ccc2c(ccn2[C@H]2CN(Cc3ccc4nc(C)c(=O)[nH]c4c3F)[C@@H]2C)n1 [Example 96]
31 | 34 | 21 | CNC(=O)c1ccc(O[C@H]2CN(Cc3ccc4nc(C5CC5)c(=O)[nH]c4c3F)[C@@H]2C)cn1 [Example 97]
32 | 61 | 29 | CNC(=O)c1ccc(O[C@H]2CN(Cc3ccc4nc(C)c(=O)[nH]c4c3F)[C@@H]2C)c(F)n1 [Example 98]
33 | 4 | 1.7 | C[C@@H]1[C@@H](Oc2ccc(C(=O)NC3CC3)nc2)CN1Cc1ccc2cc(Cl)c(=O)[nH]c2c1F [Example 99]

Source: patent publication US11802128B2, “Azetidine and pyrrolidine PARP1 inhibitors and uses thereof” (Xinthera, Inc., priority 2021, dated 2023)
